We go through two compounds from US20230143470A1, “SMALL MOLECULE INHIBITORS OF INFLUENZA HEMAGGLUTININ” (THE SCRIPPS RESEARCH INSTITUTE, priority 2020, published 2023).

The assay addresses H3/HK68 HA (Influenza A virus, UniProt Q91MA7).

Sequence of H3/HK68 HA (Q91MA7 27-521 limits assumed): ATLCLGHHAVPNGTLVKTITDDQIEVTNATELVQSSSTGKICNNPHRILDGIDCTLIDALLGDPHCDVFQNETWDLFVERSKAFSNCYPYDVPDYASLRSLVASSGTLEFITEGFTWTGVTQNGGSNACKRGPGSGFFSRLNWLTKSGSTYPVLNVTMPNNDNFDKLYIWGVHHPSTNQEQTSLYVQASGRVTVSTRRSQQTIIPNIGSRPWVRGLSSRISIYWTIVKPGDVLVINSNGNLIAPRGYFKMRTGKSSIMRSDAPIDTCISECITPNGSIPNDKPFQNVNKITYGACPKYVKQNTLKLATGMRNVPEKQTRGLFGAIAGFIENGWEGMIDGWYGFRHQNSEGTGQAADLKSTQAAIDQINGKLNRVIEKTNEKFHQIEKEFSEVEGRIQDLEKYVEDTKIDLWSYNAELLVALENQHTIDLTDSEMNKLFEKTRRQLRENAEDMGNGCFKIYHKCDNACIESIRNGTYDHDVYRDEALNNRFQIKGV

Consider `O=C(c1ccc(Cl)cc1Cl)N1CCO[C@H](c2ccccc2)C1` [F0045(R)], for which the “melting temperature of H3/HK68 HA” value was “does not change”.

On to `O=C(c1ccc(Cl)cc1Cl)N1CCO[C@@H](c2ccccc2)C1` [F0045(S)], for which the “melting temperature of H3/HK68 HA” value is listed as “does not change”.
